# Experimental data: patent US20250332264A1, “GhR-BINDING PEPTIDE AND COMPOSITION COMPRISING SAME” (priority 2021, published 2025)
# Starred links: 1 amine or outer side, 2 acyl side, 3 side chain; linkers in the order of their positions; H or OH if unused. Positions of bridges follow the written chain, without caps; N, C: chain ends. Non-standard residues stand in square brackets, D forms with d. Residues, ends and D or L forms follow the SMILES beside them. Groups on a side chain read outwards from the residue. *: point of attachment. X13 = NC(=O)[C@H](CCCCN*)NC(=O)COCCOCCNC(=O)COCCOCCNC(=O)CC[C@H](NC(=O)CC[C@H](NC(=O)CCCCCCCCCCCCC(=O)O)C(=O)O)C(=O)O; X8 = NC(=O)[C@H](CCCCN*)NC(=O)COCCOCCNC(=O)COCCOCCNC(=O)CC[C@H](NC(=O)CC[C@H](NC(=O)CCCCCCCCCCCCCC(=O)O)C(=O)O)C(=O)O; X3 = NC(=O)[C@H](CCCCN*)NC(=O)CC[C@H](NC(=O)CC[C@H](NC(=O)CCCCCCCCCCCCCCC(=O)O)C(=O)O)C(=O)O; X10 = NC(=O)[C@H](CCCCN*)NC(=O)CC[C@H](NC(=O)CC[C@H](NC(=O)CCCc1ccc(I)cc1)C(=O)O)C(=O)O; Trp(1-CH2CO) = O=C([C@H](Cc1cn(CC(=O)[*:3])c2ccccc12)N[*:1])[*:2]; Trp(5-OMe) = COc1ccc2[nH]cc(C[C@H](N)C(=O)O)c2c1; Butanoyl(4-(4-I-phenyl)) = O=C(CCCc1ccc(I)cc1)*; Trp(5-OH) = N[C@@H](Cc1c[nH]c2ccc(O)cc12)C(=O)O; Phe(4-COOH) = N[C@@H](Cc1ccc(C(=O)O)cc1)C(=O)O; Trp(7-aza) = N[C@@H](Cc1c[nH]c2ncccc12)C(=O)O; Piperazinyl(4-CH2COOH) = O=C(O)CN1CCN(*)CC1; X7 = O=C(O)CN1CCC(N[*:1])(C(=O)[*:2])CC1; γGlu = O=C(O)[C@H](CCC(=O)[*:2])N[*:1]; Aad = N[C@@H](CCCC(=O)O)C(=O)O; NMeK = CN[C@@H](CCCCN)C(=O)O; Aib = CC(C)(N)C(=O)O; CO = O=C([*:1])[*:2]
# Target: T1, Recombinant human GhR-Fc protein (Homo sapiens, UniProt P10912)
# T1 construct: purchased R&D Systems
# T1 sequence (P10912 with tags, fused parts or gaps limits assumed): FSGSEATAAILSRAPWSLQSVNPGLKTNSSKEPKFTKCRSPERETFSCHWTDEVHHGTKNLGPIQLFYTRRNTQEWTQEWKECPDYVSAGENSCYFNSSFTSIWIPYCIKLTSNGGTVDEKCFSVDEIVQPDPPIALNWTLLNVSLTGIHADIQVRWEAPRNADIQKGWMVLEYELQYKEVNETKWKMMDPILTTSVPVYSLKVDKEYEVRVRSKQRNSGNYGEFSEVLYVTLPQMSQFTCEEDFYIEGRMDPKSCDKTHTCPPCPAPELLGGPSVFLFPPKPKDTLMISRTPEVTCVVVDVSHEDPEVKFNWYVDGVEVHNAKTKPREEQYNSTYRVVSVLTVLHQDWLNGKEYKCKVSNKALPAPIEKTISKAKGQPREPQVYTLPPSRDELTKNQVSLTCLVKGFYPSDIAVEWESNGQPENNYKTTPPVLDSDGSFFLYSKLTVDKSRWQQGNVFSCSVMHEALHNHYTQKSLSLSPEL
# Assay: Binding activity of hGhR binding peptide by surface plasmon resonance (SPR), Biacore T200, single-cycle kinetics
# Details: human GhR-Fc immobilized on CM5 chip, KD calculated from ka and kd
# Protocol: SPR assay was performed using Biacore T200 (cytiva: Former GE Healthcare). After the equilibration of Series S Sensor Chip CM5 (produced by cytiva: Former GE Healthcare) with Running Buffer (HBS-EP with 1% (v/v) DMSO), an EDC/NHS mixture was injected at a flow rate of 10 μL/min for 7 minutes to thereby activate the functional groups on sensor chip. Recombinant human GhR-Fc protein (R&D Systems) in 10 mM Acetate (pH4.0) was injected immobilized to at a flow rate of 5 μL/min. It took 7 minutes to immobilize the GhR on the substrate surfaces of the sensor chip. Then Ethanolamine was injected at a flow rate of 10 μL/min for 7 minutes. 1M Ethanolamine (aq.) was injected at a flow rate of 10 μL/min for 420 seconds for capping.
# Using these Peptide Samples, kinetics of peptides against human GhR-Fc protein were measured. The method adopted for sample measurement was a single-cycle kinetics method. The analysis was conducted using the evaluation software provided with Biacore T200. A DMSO correction curve obtained by solvent correction measurements was applied for the analysis. Kinetics fitting was done on the difference data obtained by subtracting the baseline data from sample measurement data. KD values were calculated based on the association rate constant (ka) and dissociation rate constant (kd).
# Furthermore, “obs. m/z [M+2H]2+” indicates the ESI-MS(+) observed value. Unless otherwise specified, this is bivalent ([M+2H]^2+).
row,Structure (SMILES),Kd
1,CC(C)[C@@H]1NC(=O)[C@H](C(C)C)NC(=O)[C@@H]2CCCCNC(=O)Cn3cc(c4ccccc43)C[C@H](NC(=O)[C@H](CC(N)=O)NC(=O)[C@H](CO)NC1=O)C(=O)N[C@@H](Cc1ccc(C(=O)O)cc1)C(=O)N[C@@H](CCCCN)C(=O)N[C@@H](Cc1c[nH]c3ccc(O)cc13)C(=O)NC(C)(C)C(=O)N[C@@H](C(C)C)C(=O)N[C@H](C(=O)NCCCC[C@H](NC(=O)CC[C@H](NC(=O)CC[C@H](NC(=O)CCCCCCCCCCCCCCC(=O)O)C(=O)O)C(=O)O)C(N)=O)CSCC(=O)N[C@@H](Cc1ccc(O)cc1)C(=O)N2C [Compound 24] ({CH2CO}-Y[NMeK]VVSN[Trp(1-CH2CO)][Phe(4-COOH)]K[Trp(5-OH)][Aib]VC-X3; lactam 2-7; thioether N-13),2.59 nM
2,CC(C)[C@@H]1NC(=O)[C@H](C(C)C)NC(=O)[C@@H]2CCCCNC(=O)Cn3cc(c4ccccc43)C[C@H](NC(=O)[C@H](CC(N)=O)NC(=O)[C@H](CO)NC1=O)C(=O)N[C@@H](Cc1ccc(C(=O)O)cc1)C(=O)N[C@@H](CCCCN)C(=O)N[C@@H](Cc1c[nH]c3ccc(O)cc13)C(=O)NC(C)(C)C(=O)N[C@@H](C(C)C)C(=O)N[C@H](C(=O)NCCCC[C@H](NC(=O)COCCOCCNC(=O)COCCOCCNC(=O)CC[C@H](NC(=O)CC[C@H](NC(=O)CCCCCCCCCCCCC(=O)O)C(=O)O)C(=O)O)C(N)=O)CSCC(=O)N[C@@H](Cc1ccc(C(=O)O)cc1)C(=O)N2C [Compound 62] ({CH2CO}-[Phe(4-COOH)][NMeK]VVSN[Trp(1-CH2CO)][Phe(4-COOH)]K[Trp(5-OH)][Aib]VC-X13; lactam 2-7; thioether N-13),3.88 nM
3,CC(C)[C@@H]1NC(=O)[C@H](C(C)C)NC(=O)[C@@H]2CCCCNC(=O)Cn3cc(c4ccccc43)C[C@H](NC(=O)[C@H](CC(N)=O)NC(=O)[C@H](CO)NC1=O)C(=O)N[C@@H](Cc1ccc(C(=O)O)cc1)C(=O)N[C@@H](CCCCN)C(=O)N[C@@H](Cc1c[nH]c3ccc(O)cc13)C(=O)NC(C)(C)C(=O)N[C@@H](C(C)C)C(=O)N[C@H](C(=O)NCCCC[C@H](NC(=O)COCCOCCNC(=O)COCCOCCNC(=O)CC[C@H](NC(=O)CC[C@H](NC(=O)CCCCCCCCCCCCCC(=O)O)C(=O)O)C(=O)O)C(N)=O)CSCC(=O)N[C@@H](Cc1ccc(C(=O)O)cc1)C(=O)N2C [Compound 63] ({CH2CO}-[Phe(4-COOH)][NMeK]VVSN[Trp(1-CH2CO)][Phe(4-COOH)]K[Trp(5-OH)][Aib]VC-X8; lactam 2-7; thioether N-13),3.7 nM
4,CC(C)[C@@H]1NC(=O)[C@H](C(C)C)NC(=O)[C@@H]2CCCCNC(=O)Cn3cc(c4ccccc43)C[C@H](NC(=O)[C@H](CC(N)=O)NC(=O)[C@H](CO)NC1=O)C(=O)N[C@@H](Cc1ccc(C(=O)O)cc1)C(=O)N[C@@H](CCCC(N)=O)C(=O)N[C@@H](Cc1c[nH]c3ccc(O)cc13)C(=O)NC(C)(C)C(=O)N[C@@H](C(C)C)C(=O)N[C@H](C(=O)NCCCC[C@H](NC(=O)CC[C@H](NC(=O)CC[C@H](NC(=O)CCCc1ccc(I)cc1)C(=O)O)C(=O)O)C(N)=O)CSCC(=O)N[C@@H](Cc1ccc(C(=O)O)cc1)C(=O)N2C [Compound 5] ({CH2CO}-[Phe(4-COOH)][NMeK]VVSN[Trp(1-CH2CO)][Phe(4-COOH)][Aad](NH2)[Trp(5-OH)][Aib]VC-X10; lactam 2-7; thioether N-13),3.07 nM
5,COc1ccc2[nH]cc(C[C@@H]3NC(=O)[C@H](CC(N)=O)NC(=O)[C@H](CO)NC(=O)[C@H](C(C)C)NC(=O)[C@H](C(C)C)NC(=O)[C@H](CCCCNC(=O)CC[C@H](NC(=O)CCCc4ccc(I)cc4)C(=O)O)N(C)C(=O)[C@H](Cc4ccc(O)cc4)NC(=O)CSC[C@@H](C(=O)NCC(=O)N4CCC[C@H]4C(=O)N[C@H](CO)C(=O)N[C@H](CO)C(=O)N[C@H](CO)C(N)=O)NC(=O)[C@H](C(C)C)NC(=O)C(C)(C)NC(=O)[C@H](Cc4c[nH]c5ccc(O)cc45)NC(=O)[C@H](CCCCNC(=O)N4CCN(CC(=O)O)CC4)NC(=O)[C@H](Cc4ccc(C(=O)O)cc4)NC3=O)c2c1 [Compound 48] ({CH2CO}-Y[NMeK]([γGlu-Butanoyl(4-(4-I-phenyl))])VVSN[Trp(5-OMe)][Phe(4-COOH)]K([CO-Piperazinyl(4-CH2COOH)])[Trp(5-OH)][Aib]VCGP[dS][dS][dS]-NH2; thioether N-13),4.35 nM
6,COc1ccc2[nH]cc(C[C@@H]3NC(=O)[C@H](CC(N)=O)NC(=O)[C@H](CO)NC(=O)[C@H](C(C)C)NC(=O)[C@H](C(C)C)NC(=O)[C@H](CCCCNC(=O)CC[C@H](NC(=O)CC[C@H](NC(=O)CCCc4ccc(I)cc4)C(=O)O)C(=O)O)N(C)C(=O)[C@H](Cc4ccc(O)cc4)NC(=O)CSC[C@@H](C(=O)NCC(=O)N4CCC[C@H]4C(=O)N[C@H](CO)C(=O)N[C@H](CO)C(=O)N[C@H](CO)C(N)=O)NC(=O)[C@H](C(C)C)NC(=O)C4(CCN(CC(=O)O)CC4)NC(=O)[C@H](Cc4c[nH]c5ccc(O)cc45)NC(=O)[C@H](CCCCN)NC(=O)[C@H](Cc4ccc(C(=O)O)cc4)NC3=O)c2c1 [Compound 52] ({CH2CO}-Y[NMeK]([γGlu-γGlu-Butanoyl(4-(4-I-phenyl))])VVSN[Trp(5-OMe)][Phe(4-COOH)]K[Trp(5-OH)][X7]VCGP[dS][dS][dS]-NH2; thioether N-13),5.47 nM
7,CC(C)[C@@H]1NC(=O)[C@H](C(C)C)NC(=O)[C@@H]2CCCCNC(=O)Cn3cc(c4ccccc43)C[C@H](NC(=O)[C@H](CC(N)=O)NC(=O)[C@H](CO)NC1=O)C(=O)N[C@@H](Cc1ccc(C(=O)O)cc1)C(=O)N[C@@H](CCCCN)C(=O)N[C@@H](Cc1c[nH]c3ccc(O)cc13)C(=O)NC(C)(C)C(=O)N[C@@H](C(C)C)C(=O)N[C@H](C(=O)NCCCC[C@H](NC(=O)CC[C@H](NC(=O)CC[C@H](NC(=O)CCCc1ccc(I)cc1)C(=O)O)C(=O)O)C(N)=O)CSCC(=O)N[C@@H](Cc1ccc(C(=O)O)cc1)C(=O)N2C [Compound 9] ({CH2CO}-[Phe(4-COOH)][NMeK]VVSN[Trp(1-CH2CO)][Phe(4-COOH)]K[Trp(5-OH)][Aib]VC-X10; lactam 2-7; thioether N-13),1.46 nM
8,CC(C)[C@@H]1NC(=O)[C@H](C(C)C)NC(=O)[C@@H]2CCCCNC(=O)Cn3cc(c4ccccc43)C[C@H](NC(=O)[C@H](CC(N)=O)NC(=O)[C@H](CO)NC1=O)C(=O)N[C@@H](Cc1ccc(C(=O)O)cc1)C(=O)N[C@@H](CCCCN)C(=O)N[C@@H](Cc1c[nH]c3ccc(O)cc13)C(=O)NC1(CCN(CC(=O)O)CC1)C(=O)N[C@@H](C(C)C)C(=O)N[C@H](C(=O)NCCCC[C@H](NC(=O)CC[C@H](NC(=O)CC[C@H](NC(=O)CCCc1ccc(I)cc1)C(=O)O)C(=O)O)C(N)=O)CSCC(=O)N[C@@H](Cc1ccc(C(=O)O)cc1)C(=O)N2C [Compound 8] ({CH2CO}-[Phe(4-COOH)][NMeK]VVSN[Trp(1-CH2CO)][Phe(4-COOH)]K[Trp(5-OH)][X7]VC-X10; lactam 2-7; thioether N-13),2.08 nM
9,CC(C)[C@@H]1NC(=O)[C@H](C(C)C)NC(=O)[C@H](CCCCNC(=O)CC[C@H](NC(=O)CCCc2ccc(I)cc2)C(=O)O)N(C)C(=O)[C@H](Cc2ccc(O)cc2)NC(=O)CSC[C@@H](C(N)=O)NC(=O)[C@H](C(C)C)NC(=O)C(C)(C)NC(=O)[C@H](Cc2c[nH]c3ccc(O)cc23)NC(=O)[C@H](CCCCN)NC(=O)[C@H](Cc2ccc(C(=O)O)cc2)NC(=O)[C@H](Cc2c[nH]c3ncccc23)NC(=O)[C@H](CC(N)=O)NC(=O)[C@H](CO)NC1=O [Compound 43] ({CH2CO}-Y[NMeK]([γGlu-Butanoyl(4-(4-I-phenyl))])VVSN[Trp(7-aza)][Phe(4-COOH)]K[Trp(5-OH)][Aib]VC-NH2; thioether N-13),3.95 nM
10,COc1ccc2[nH]cc(C[C@@H]3NC(=O)[C@H](CC(N)=O)NC(=O)[C@H](CO)NC(=O)[C@H](C(C)C)NC(=O)[C@H](C(C)C)NC(=O)[C@H](CCCCNC(=O)CC[C@H](NC(=O)CCCc4ccc(I)cc4)C(=O)O)N(C)C(=O)[C@H](Cc4ccc(O)cc4)NC(=O)CSC[C@@H](C(=O)NCC(=O)N4CCC[C@H]4C(=O)N[C@H](CO)C(=O)N[C@H](CO)C(=O)N[C@H](CO)C(N)=O)NC(=O)[C@H](C(C)C)NC(=O)C(C)(C)NC(=O)[C@H](Cc4c[nH]c5ccc(O)cc45)NC(=O)[C@H](CCCCN)NC(=O)[C@H](Cc4ccc(O)cc4)NC3=O)c2c1 [Compound 46] ({CH2CO}-Y[NMeK]([γGlu-Butanoyl(4-(4-I-phenyl))])VVSN[Trp(5-OMe)]YK[Trp(5-OH)][Aib]VCGP[dS][dS][dS]-NH2; thioether N-13),1.07 nM
11,CC(C)[C@@H]1NC(=O)[C@H](C(C)C)NC(=O)[C@@H]2CCCCNC(=O)Cn3cc(c4ccccc43)C[C@H](NC(=O)[C@H](CC(N)=O)NC(=O)[C@H](CO)NC1=O)C(=O)N[C@@H](Cc1ccc(O)cc1)C(=O)N[C@@H](CCCCNC(=O)N1CCN(CC(=O)O)CC1)C(=O)N[C@@H](Cc1c[nH]c3ccc(O)cc13)C(=O)NC(C)(C)C(=O)N[C@@H](C(C)C)C(=O)N[C@H](C(=O)NCC(=O)N1CCC[C@H]1C(=O)N[C@H](CO)C(=O)N[C@H](CO)C(=O)N[C@H](CO)C(=O)NCCCC[C@H](NC(=O)CC[C@H](NC(=O)CC[C@H](NC(=O)CCCCCCCCCCCCCCC(=O)O)C(=O)O)C(=O)O)C(N)=O)CSCC(=O)N[C@@H](Cc1ccc(O)cc1)C(=O)N2C [Compound 28] ({CH2CO}-Y[NMeK]VVSN[Trp(1-CH2CO)]YK([CO-Piperazinyl(4-CH2COOH)])[Trp(5-OH)][Aib]VCGP[dS][dS][dS]-X3; lactam 2-7; thioether N-13),2.71 nM
